Key:
Assay type in all cases: in vivo, BALB/c mice
[1] = test system: CD8+ T cells specific to MA p265, NY p81 and mERK2 9m; assay: Specific CD8+ T cell induction by CHP/long chain peptide vaccines in mice, intracellular cytokine staining of spleen cells; conditions: for induction of specific CD8+ T cells corresponding to all three types of epitopes: FIG. 1, MEN antigens complexed with CHP, subcutaneous, CpG oligo DNA adjuvant, spleen cells one week after final administration
Excerpt: Long chain peptide antigens MEN, all containing three types of mouse CD8+ T cell epitope sequences (MA p265 (Sequence No. 27), NY p81 (Sequence No. 29), and mERK2 9m (Sequence No. 28)), were synthesized. The interepitope sequences between the respective epitopes were respectively six consecutive tyrosines (Y6) (Sequence No. 1), six consecutive glycines (G6) (Sequence No. 2), six consecutive prolines (P6) (Sequence No. 3), or six consecutive threonines (T6) (Sequence No. 4). Each long chain peptide antigen was complexed with cholesterol-modified pullulan (CHP), which is a type of delivery system, and administered as a vaccine to a mouse. In the process of administration, CpG oligo DNA was coadministered as an adjuvant. Spleen cells were collected one week after the final administration and the frequencies of CD8+ T cells specific to the respective epitope sequences were measured by an intracellular cytokine staining method.
Long chain peptide antigens NME, all containing three types of mouse CD8+ T cell epitope sequences (MA p265 (Sequence No. 27), NY p81 (Sequence No. 29), and mERK2 9m (Sequence No. 28)), were synthesized. The antigens differ from the MEN sequences shown in FIG. 1 in the order of the three types of epitopes. The interepitope sequences between the respective epitopes were respectively six consecutive tyrosines (Y6) (Sequence No. 5), six consecutive glycines (G6) (Sequence No. 6), or six consecutive prolines (P6) (Sequence No. 7). Vaccines containing the respective long chain peptide antigens were administered to mice in the same manner as in FIG. 1 and the frequencies of CD8+ T cells specific to the respective epitope sequences were measured by the intracellular cytokine staining method.
Long chain peptide antigens MEN, ENM, and NME, all containing three types of mouse CD8+ T cell epitope sequences (MA p265 (Sequence No. 27), NY p81 (Sequence No. 29), and mERK2 9m (Sequence No. 28)), were synthesized. MEN, ENM, and […] in the order of the three types of epitopes. The interepitope sequences between the respective epitopes were each six consecutive tyrosines (Y6) (Sequence Nos. 1, 5 and 8). Vaccines containing the respective long chain peptide antigens were administered to mice in the same manner as in FIG. 1 and the frequencies of CD8+ T cells specific to the respective epitope sequences were measured by the intracellular cytokine staining method.
Each long chain peptide was dissolved in dimethyl sulfoxide (DMSO) at a concentration of 10 mg/mL. CHP was dissolved in 6 M urea-containing phosphate buffered saline (PBS) at a concentration of 10 mg/mL 1 mL (10 mg) of the long chain peptide solution and 20 mL (200 mg) of the CHP solution were mixed and left to stand at room temperature overnight in a dark place. The liquid mixture was transferred into a dialysis membrane (molecular weight cutoff: 3,500; Thermo Fisher Scientific, Inc.) and dialyzed for 2 hours to overnight at 4° C. against 0.6 M urea-containing PBS of a volume ratio of not less than 100 times as the dialysis outer solution. Dialysis was then performed for 2 hours to overnight at 4° C. against 0.06 M urea-containing PBS of a volume ratio of not less than 100 times as the dialysis outer solution. Dialysis was performed again for 2 hours to overnight at 4° C. against PBS of a volume ratio of not less than 100 times as the dialysis outer solution. The dialyzed inner solution was collected, filtered through a filtration sterilization filter of 0.45 μm or 0.22 μm pore size, and thereafter the UV absorption at 280 nm was measured to determine the final concentration of the long chain peptide from its molecular extinction coefficient.
Each CHP/long chain peptide complex as the vaccine and the CpG oligo DNA as the adjuvant were administered at the same time to a mouse. Administration was performed by subcutaneous injection on the back of the mouse. […]

[2] = test system: mouse fibrosarcoma cell line CMS5a; assay: Mouse tumor growth test; conditions: FIG. 2; single dose of vaccine with CpG oligo DNA before subcutaneous CMS5a implantation (prophylactic condition); Student's t test
Excerpt: Long chain peptide antigens MEN, all containing three types of mouse CD8+ T cell epitope sequences (MA p265 (Sequence No. 27), NY p81 (Sequence No. 29), and mERK2 9m (Sequence No. 28)), were synthesized. The interepitope sequences between the respective epitopes were respectively six consecutive tyrosines (Y6) (Sequence No. 1), six consecutive glycines (G6) (Sequence No. 2), or six consecutive prolines (P6) (Sequence No. 3). Each long chain peptide antigen was complexed with CHP and administered in a single dose as a vaccine to a mouse. As a control, a short chain peptide vaccine, constituted of just the mERK2 9m peptide, was mixed with Freund's incomplete adjuvant and administered. In the process of administration, CpG oligo DNA was coadministered as an adjuvant. On the day after administration, a mouse fibrosarcoma cell line CMS5a, expressing mERK2 as a tumor antigen and presenting the CD8+ T cell epitope mERK2 9m derived from the same antigen, was implanted subcutaneously and its growth was recorded over time.
A subcloned CMS5a cell line, obtained from a CMS5 cell line isolated from fibrosarcoma induced by administering 3-methylcholanthrene to a BALB/c mouse, expresses mutant ERK2 (mERK2) as a tumor antigen and presents a CD8^+ T cell epitope derived from the mERK2. The CMS5a cell line cultured in a T75 flask (Nunc) was detached using PBS containing 0.5% trypsin and collected in RPMI1640 medium containing 10% FBS. After centrifuging (400×g, 5 minutes, 4° C.), the supernatant was removed, and the cells were rinsed twice with RPMI1640 medium, thereafter suspended in RPMI1640 medium at a concentration of 1×10^6 cells/100 μL, and implanted subcutaneously in BALB/c mice at a dose of 100 μL/individual. The CHP/long chain peptide complexes and the adjuvant were administered 7 days before tumor implantation (prophylactic condition). After tumor implantation, the length and breadth of the tumor were measured and the product thereof was recorded as tumor size. The data in the tumor growth test were compared by Student's t test using Microsoft® Excel® (Microsoft Corporation).

[3] = test system: F4/80+ cells (macrophages); assay: Uptake of FAM-labeled long chain peptide antigens in individual animals, regional lymph node macrophages; conditions: FIG. 9, complexed with CHP, subcutaneous, 16 hours after administration
Protocol: The same FAM-labeled long chain peptide antigens as those in FIG. 8 were complexed with CHP and administered subcutaneously to mice. After 16 hours, cells were collected from a regional lymph node of the administration site, and the fluorescence uptakes into dendritic cells and mouse macrophages were measured by flow cytometry with the P4 fraction in the figure being deemed to correspond to the dendritic cells and the P5 fraction in the figure being deemed to correspond to the macrophages.
A test of uptake of long chain peptide antigens by antigen-presenting cells in individual animals was performed as follows. Each long chain peptide was fluorescence-labeled, complexed with a CHP nanogel, administered subcutaneously to BALB/c mice. 16 hours after administration, cells were collected from lymph nodes and after staining with the anti-CD11c antibody and the anti-F4/80 antibody, the uptake of the fluorescence-labeled long chain peptide antigens by CD11c^+ cells (dendritic cells) and F4/80^+ cells (macrophages) was analyzed by flow cytometry.

[4] = test system: mERK2 9m specific CD8+ T cells; assay: Specific CD8+ T cell induction in mice, intracellular cytokine staining (mERK2 9m epitope); conditions: FIG. 6; comparing one to six tyrosines
Protocol: Long chain peptide antigens MEN, all containing three types of mouse CD8+ T cell epitope sequences (MA p265 (Sequence No. 27), NY p81 (Sequence No. 29), and mERK2 9m (Sequence No. 28)), were synthesized. The interepitope sequences between the respective epitopes were one to six consecutive tyrosines (Sequence Nos. 1 and 9-12). Vaccines containing the respective long chain peptide antigens were administered to mice in the same manner as in FIG. 1 and the frequencies of CD8+ T cells specific to the respective epitope sequences were measured by the intracellular cytokine staining method.
Long chain peptide antigens MEN, all containing three types of mouse CD8+ T cell epitope sequences (MA p265 (Sequence No. 27), NY p81 (Sequence No. 29), and mERK2 9m (Sequence No. 28)), were synthesized. The interepitope sequences between the respective epitopes were five to ten consecutive tyrosines (Sequence Nos. 1 and 13-15). Vaccines containing the respective long chain peptide antigens were administered to mice in the same manner as in FIG. 1 and the frequencies of CD8+ T cells specific to the respective epitope sequences were measured by the intracellular cytokine staining method.
Each CHP/long chain peptide complex as the vaccine and the CpG oligo DNA as the adjuvant were administered at the same time to a mouse. Administration was performed by subcutaneous injection on the back of the mouse. As the dose, the CHP/long chain peptide complex was administered at 0.05 to 0.1 mg equivalent of long chain peptide per administration. The CpG oligo DNA was administered at 0.05 mg per administration. One week after the final administration, spleen cells were separated by the following procedure from each vaccine-administered mouse. The spleen was isolated from the mouse and removed of blood by rinsing with RPMI1640 medium. After the spleen was triturated using a glass slide, the released cells were collected in RPMI1640 medium. After centrifuging (400×g, 5 minutes, 4° C.), the supernatant was removed and the cells were treated for 1 minute by adding 2 mL of ACK solution. […]

Sequence	induction of specific CD8+ T cells corresponding to all three types of epitopes [1]	growth of the tumor [2]	fluorescence uptake into macrophages of the regional lymph node [3]	number of tyrosines of the interepitope sequence, judged in view of the results for the three types of epitopes ([1]; FIG. 6, comparing one to six tyrosines)	induction of specific CD8+ T cells, mERK2 9m (second epitope) [4]
SNPARYEFLPPPPPPQYIHSANVLPPPPPPRGPESRLL (Long chain peptide antigen, containing three types of mouse CD8+ T cell epitope sequences (MA p265, NY p81, and mERK2 9m)) [MEN(P6)]	clearly weak	significant suppression of tumor growth was not observed	hardly observed	–	–
SNPARYEFLYYYYQYIHSANVLYYYYRGPESRLL (Long chain peptide antigen, containing three types of mouse CD8+ T cell epitope sequences (MA p265, NY p81, and mERK2 9m)) [MEN(Y4)]	–	–	–	satisfactory	highest
SNPARYEFLGGGGGGQYIHSANVLGGGGGGRGPESRLL (Long chain peptide antigen, containing three types of mouse CD8+ T cell epitope sequences (MA p265, NY p81, and mERK2 9m)) [MEN(G6)]	clearly weak	significant suppression of tumor growth was not observed	hardly observed	–	–
QYIHSANVL [mERK2 9m, reference compound]	–	significant suppression of tumor growth was not observed	–	–	–
